# According to patent publication US20090286813A1, “Thioxanthine Derivatives and Their Use as Inhibitors of MPO” (ASTRAZENECA AB, priority 2006, published 2009):
# pIC50: −log10 of the molar value.
# Target: T1, human MPO (Homo sapiens, UniProt P05164)
# T1 sequence (P05164 49-745): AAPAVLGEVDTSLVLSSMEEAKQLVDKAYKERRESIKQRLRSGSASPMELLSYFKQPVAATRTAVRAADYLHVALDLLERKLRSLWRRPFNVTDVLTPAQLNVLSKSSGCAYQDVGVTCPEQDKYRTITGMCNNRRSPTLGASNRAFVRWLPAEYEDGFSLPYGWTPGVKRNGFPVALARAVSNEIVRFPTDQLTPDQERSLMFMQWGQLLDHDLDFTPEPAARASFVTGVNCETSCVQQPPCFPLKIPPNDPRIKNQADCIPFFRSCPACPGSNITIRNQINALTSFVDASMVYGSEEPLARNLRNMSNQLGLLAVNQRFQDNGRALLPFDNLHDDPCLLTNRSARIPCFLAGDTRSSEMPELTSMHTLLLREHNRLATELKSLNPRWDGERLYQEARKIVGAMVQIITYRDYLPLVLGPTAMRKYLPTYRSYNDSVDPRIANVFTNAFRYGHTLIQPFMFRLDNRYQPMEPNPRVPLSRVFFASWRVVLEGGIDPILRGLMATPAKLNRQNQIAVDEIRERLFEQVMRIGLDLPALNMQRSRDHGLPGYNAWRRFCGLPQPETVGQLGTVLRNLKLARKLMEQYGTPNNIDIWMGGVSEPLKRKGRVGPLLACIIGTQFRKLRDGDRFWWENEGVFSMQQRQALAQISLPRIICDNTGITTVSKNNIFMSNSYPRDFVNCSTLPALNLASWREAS
# Test: MPO inhibition screen (TMB oxidation, absorbance)
# Format: biochemical
# Conditions: in the presence of tyrosine (final concentration 8 μM); human MPO 2.5 nM
# Protocol: Methods for the determination of MPO inhibitory activity are disclosed in patent application WO 02/090575. The pharmacological activity of compounds according to the invention was tested in the following screen in which the compounds were either tested alone or in the presence of added tyrosine:
# Assay buffer: 20 mM sodium/potassium phosphate buffer pH 6.5 containing 10 mM taurine and 100 mM NaCl.
# Developing reagent: 2 mM 3,3′,5,5′-tetramethylbenzidine (TMB), 200 μM KI, 200 mM acetate buffer pH 5.4 with 20% DMF.
# To 10 μl of diluted compounds in assay buffer, 40 μl of human MPO (final concentration 2.5 nM), with or without 20 μM tyrosine (final concentration, if present, 8 μM), was added and the mixture was incubated for 10 minutes at ambient temperature. Then 50 μl of H2O2 (final concentration 100 μM), or assay buffer alone as a control, were added. After incubation for 10 minutes at ambient temperature, the reaction was stopped by adding 10 μl 0.2 mg/ml of catalase (final concentration 18 μg/ml). The reaction mixture was left for an additional 5 minutes before 100 μl of TMB developing reagent was added. The amount of oxidised 3,3′,5,5′-tetramethylbenzidine formed was then measured after about 5 minutes using absorbance spectroscopy at about […]. IC50 values were then determined using standard procedures.
row,pIC50,SMILES
1,5.56,"O=c1[nH]c(=S)n(-c2cccc(OC(F)(F)F)c2)c2nc[nH]c12 [Example 3, 2-thioxo-3-[3-(trifluoromethoxy)phenyl]-1,2,3,7-tetrahydro-6H-purin-6-one]"
2,5.35,"O=c1[nH]c(=S)n(-c2cnc3ccccc3c2)c2nc[nH]c12 [Example 8, 3-quinolin-3-yl-2-thioxo-1,2,3,7-tetrahydro-6H-purin-6-one]"
